Data: patent US20240082340A1 (Biohaven Therapeutics Ltd., priority 2021, published 2024)

What was measured:
[1] = taken with meals; cited from earlier work
[2] = test system: patients diagnosed with Alzheimer's disease of mild-to-moderate severity; test: T2 Protect AD trial: ADAS-Cog 11; format: in vivo, human; conditions: for ADAS-Cog Total Score, Model Estimates, LSMean (SE): change from baseline; for ADAS-Cog Total Score, Model Estimates, LSMean (SE) Difference: placebo vs troriluzole
From the text: (§1) The ADAS-Cog 11 evaluates memory (word recall, word recognition), reasoning (following commands), language (naming, comprehension), orientation, ideational praxis (placing a letter in an envelope) and constructional praxis (copying geometric designs). Ratings of spoken language, language comprehension, word finding difficulty, and ability to remember test instructions are also obtained. The test is scored in terms of errors, with higher scores reflecting poorer performance and greater impairment. Scores can range from 0 (best) to 70 (worse).
The primary efficacy endpoint is the within-participant change in ADAS-Cog 11 from baseline to week 48, compared between the treatment group and the placebo group.
as §1, with “11 (Rosen, Mohs, & Davis, 1984) is a structured scale that” for “11”
(§2) The T2 Protect AD trial has been conducted, which is a Phase 2/3, randomized, double-blind, placebo-controlled study evaluating the efficacy and safety of troriluzole in patients diagnosed with Alzheimer's disease of mild-to-moderate severity (Mini-Mental State Examination [MMSE] scores of 14-24; mild: 20-24, moderate: 14-19).

[3] = test system: patients diagnosed with Alzheimer's disease of mild-to-moderate severity; test: T2 Protect AD trial: CDR-Sum of Boxes; format: in vivo, human; conditions: Week 48; for CDR01-Sum of Boxes, Model Estimates, LSMean (SE) Difference: placebo vs troriluzole
From the text: The CDR-SOB (Hughes, Berg, Danziger, Coben, & Martin, 1982) is a validated composite rating of cognition and everyday functioning used in longitudinal AD research which incorporates both informant input and direct assessment of performance. It assesses through semi structured interview 3 cognitive domains including memory, orientation, and judgement/problem solving and 3 everyday functional domains including community affairs, home and hobbies and personal care. There are 5 levels of impairment from none CDR=0 to severe CDR=3. The individual domain scores are added to create a sum of the box scores.
as §2

[4] = test system: patients diagnosed with Alzheimer's disease of mild-to-moderate severity; test: T2 Protect AD trial: volumetric MRI hippocampal volume (Quarc); format: in vivo, human; conditions: for Hippocampal Volume Change, Model Estimates, LSMean (SE) Difference: Week 48, placebo vs troriluzole
From the text: vMRI allows the in vivo assessment of brain structure volume and provides a measure of atrophy rate. […] Atrophy of the medial temporal lobe, including hippocampus and entorhinal cortex, has long been described in vMRI studies of AD. Hippocampal volume derived from MRI correlates with histological hippocampal volume and degree of neuronal loss and AD pathology, and entorhinal cortical thickness change appears to be an early and sensitive indicator of neurodegeneration associated with AD (Holland et al., 2009; Jack et al., 2004).
Participants will undergo vMRI scans of the brain at screening, week 24 and week 48 in order to assess for changes in brain volumes that may be associated with clinical change due to treatment with BHV-4157.
Volumetric MRI scans will use the same imaging protocol, which will include a localizer scan, a 3D T1-weighted sagittal acquisition (MPRAGE or IR-SPGR), a T2-weighted FLAIR axial acquisition, a T2* gradient recalled echo axial acquisition for magnetic susceptibility, and a diffusion weighted axial acquisition to assess for restricted diffusion.
Images will be checked for image quality and adherence to scanning protocols. 3D T1-weighted datasets passing quality checks will be corrected for spatial distortion and for intensity variation. Screening and follow-up datasets for each participant will be spatially registered to one another using rigid-body registration followed by nonlinear registration and neuroanatomic parcellation to quantify whole-brain and subregional volumetric change on a patient-by patient basis.
Whole brain volume (WBV, excluding cerebellum), bilateral ventricular volume and bilateral hippocampal volume will be measured. Quantitative anatomical regional change (Quarc) will be used as the computational MR image processing application. Detail for the statistical computations is given in the Statistical Analytical Plan (SAP).
as §2

[5] = test system: patients diagnosed with Alzheimer's disease of mild-to-moderate severity; test: T2 Protect AD trial: Neuropsychiatric Inventory (NPI); format: in vivo, human; conditions: for NPI score LS mean change, difference versus placebo: after 48 weeks, troriluzole minus placebo
From the text: The NPI is a well-validated, reliable, multi-item instrument to assess psychopathology in AD dementia based on the results of an interview with the study partner (Cummings, 1997). The NPI evaluates both the frequency and severity of 10 neuropsychiatric features, including delusions, hallucinations, agitation/aggression, dysphoria, anxiety, euphoria, apathy, disinhibition, irritability and lability, and aberrant motor behavior, as well as evaluates sleep and appetite/eating disorders. Frequency assessments range from 1 (occasionally, less than once per week) to 4 (very frequently, once or more per day or continuously). Severity assessments range from 1 (mild) to 3 (severe). The score for each subscale is the product of severity and frequency and the total score is the sum of all subscales.
as §2

[6] = Week 48, mild-to-moderate AD, 280 mg once daily
[7] = after 48 weeks, mild AD, placebo minus troriluzole

SMILES: Nc1nc2ccc(OC(F)(F)F)cc2s1 [Riluzole, riluzole]
- food effect on exposure [1]: reduced exposure when taken with meals

SMILES: CN(CC(=O)Nc1nc2ccc(OC(F)(F)F)cc2s1)C(=O)CNC(=O)CN [Troriluzole, troriluzole]
- ADAS-Cog Total Score, Model Estimates, LSMean (SE) ([2]; Week 48, mild AD patients only): 4.2
- ADAS-Cog Total Score, Model Estimates, LSMean (SE) [2, 6]: 6.7 (0.70)
- ADAS-Cog Total Score, Change from Baseline, Mean (SD) ([2]; Week 48, mild AD patients only): 3.9
- ADAS-Cog Total Score, Analysis Value, Mean (SD) ([2]; Week 48, mild AD patients only, 280 mg once daily): 26.2
- outcome on co-primary endpoint ADAS-cog ([2]; Week 48, mild-to-moderate AD): did not meet the study's pre-specified co-primary endpoints
- ADAS-Cog Total Score, Change from Baseline, Mean (SD) [2, 6]: 5.8 (7.40)
- ADAS-Cog Total Score, Change from Baseline, Median [2, 6]: 6.0
- ADAS-Cog Total Score, Model Estimates, LSMean (SE) Difference ([2]; Week 48, mild AD patients only): 0.7 (1.02)
- ADAS-Cog Total Score, Model Estimates, LSMean (SE) Difference ([2]; Week 48, mild-to-moderate AD): 0.0 (0.93)
- ADAS-Cog11 score LS mean change, difference versus placebo [2, 7]: 0.7 points
- outcome on co-primary endpoint CDR-SB ([3]; mild-to-moderate AD): did not meet the study's pre-specified co-primary endpoints
- CDR01-Sum of Boxes, Model Estimates, LSMean (SE) Difference ([3]; mild AD patients only): −0.3 (0.40)
- CDR01-Sum of Boxes, Model Estimates, LSMean (SE) Difference ([3]; mild-to-moderate AD): −0.2 (0.28)
- Hippocampal Volume Change, Model Estimates, LSMean (SE) Difference ([4]; mild AD patients only): −0.5 (0.38)
- Hippocampal Volume Change, Model Estimates, LSMean (SE) Difference ([4]; mild-to-moderate AD): 0.0 (0.26)
- hippocampal volume LS mean percent deformation change, difference versus placebo [4, 7]: −0.5%
- key secondary measure of hippocampal volume assessed by MRI, versus placebo ([4]; overall population): did not differentiate from placebo
- NPI across subgroups versus placebo ([5]; Week 48, only mild AD, only moderate AD, only ApoE4 positive, only ApoE4 negative patients): numerical differences of a potential benefit
- NPI score LS mean change, difference versus placebo ([5]; mild AD): −2.1 points
- NPI score LS mean change, difference versus placebo ([5]; mild-to-moderate AD): −1.5 points
